This note sets out measurements from patent US20050197350A1, “Novel quinoline, tetrahydroquinazoline, and pyrimidine derivatives and methods of treatment related to the use thereof” (TAISHO PHARMACEUTICAL CO., LTD., priority 2003, published 2005).

For the assay, the system named is MCH receptors. Nature of the assay: MCH receptor activity class (method not given). The note with it: MCH receptor; class by percent of control at 10^-7 M or IC50.

For the compound `COc1ccc(CNC(=S)N[C@H]2CC[C@@H](Nc3nc4c(c(N(C)C)n3)CCCC4)CC2)cc1OC` [compound 2041], the class is reported as 3 (Class 3 The value of percent of control at 10^−7 M was more than 60% or the value of IC50 was more than 200 nM.).
As to `CCc1cccc(NC(=S)N[C@H]2CC[C@@H](Nc3nc4c(c(N(C)C)n3)CCCC4)CC2)c1` [compound 2042], the class is recorded as 3 (Class 3 The value of percent of control at 10^−7 M was more than 60% or the value of IC50 was more than 200 nM.).
In the case of `CN(C)c1nc(N[C@H]2CC[C@@H](NC(=S)NCc3cccc(F)c3)CC2)nc2c1CCCC2` [compound 2043] it was 3 (Class 3 The value of percent of control at 10^−7 M was more than 60% or the value of IC50 was more than 200 nM.).
In the case of `COc1cccc(CNC(=S)N[C@H]2CC[C@@H](Nc3nc4c(c(N(C)C)n3)CCCC4)CC2)c1` [compound 2044] it was 3 (Class 3 The value of percent of control at 10^−7 M was more than 60% or the value of IC50 was more than 200 nM.).
To `Cc1cccc(CNC(=S)N[C@H]2CC[C@@H](Nc3nc4c(c(N(C)C)n3)CCCC4)CC2)c1` [compound 2045] belongs 3 (Class 3 The value of percent of control at 10^−7 M was more than 60% or the value of IC50 was more than 200 nM.); to `CN(C)c1nc(N[C@H]2CC[C@@H](NC(=S)Nc3ccc(Br)c(Cl)c3)CC2)nc2c1CCCC2` [compound 2046], 3 (Class 3 The value of percent of control at 10^−7 M was more than 60% or the value of IC50 was more than 200 nM.).
As to `Cc1cc(NC(=S)N[C@H]2CC[C@@H](Nc3nc4c(c(N(C)C)n3)CCCC4)CC2)ccc1Br` [compound 2047], the class is 3 (Class 3 The value of percent of control at 10^−7 M was more than 60% or the value of IC50 was more than 200 nM.).
In the case of `CCCCCCCCCCc1ccc(NC(=S)N[C@H]2CC[C@@H](Nc3nc4c(c(N(C)C)n3)CCCC4)CC2)cc1` [compound 2048] it was 3 (Class 3 The value of percent of control at 10^−7 M was more than 60% or the value of IC50 was more than 200 nM.); in that of `CN(C)c1nc(N[C@H]2CC[C@@H](NC(=S)Nc3ccc(Oc4ccc([N+](=O)[O-])cc4)cc3)CC2)nc2c1CCCC2` [compound 2049], 3 (Class 3 The value of percent of control at 10^−7 M was more than 60% or the value of IC50 was more than 200 nM.); in that of `CN(C)c1nc(N[C@H]2CC[C@@H](NC(=S)Nc3ccc(Sc4ccc([N+](=O)[O-])cc4)cc3)CC2)nc2c1CCCC2` [compound 2050], 3 (Class 3 The value of percent of control at 10^−7 M was more than 60% or the value of IC50 was more than 200 nM.).
To `CN(C)c1nc(N[C@H]2CC[C@@H](NC(=S)Nc3ccc(S(N)(=O)=O)cc3)CC2)nc2c1CCCC2` [compound 2051] belongs 3 (Class 3 The value of percent of control at 10^−7 M was more than 60% or the value of IC50 was more than 200 nM.); to `Cc1ccc(CCNC(=S)N[C@H]2CC[C@@H](Nc3nc4c(c(N(C)C)n3)CCCC4)CC2)cc1` [compound 2052], 3 (Class 3 The value of percent of control at 10^−7 M was more than 60% or the value of IC50 was more than 200 nM.); to `CN(C)c1nc(N[C@H]2CC[C@@H](NC(=S)Nc3ccc(Oc4ccccc4)cc3)CC2)nc2c1CCCC2` [compound 2053], 3 (Class 3 The value of percent of control at 10^−7 M was more than 60% or the value of IC50 was more than 200 nM.).
To `CN(C)c1nc(N[C@H]2CC[C@@H](NC(=S)Nc3ccc4c(c3)CCC4)CC2)nc2c1CCCC2` [compound 2054] belongs 3 (Class 3 The value of percent of control at 10^−7 M was more than 60% or the value of IC50 was more than 200 nM.).
Regarding `CN(C)c1nc(N[C@H]2CC[C@@H](NC(=S)NC3CCCCCC3)CC2)nc2c1CCCC2` [compound 2055], the class is on record as 3 (Class 3 The value of percent of control at 10^−7 M was more than 60% or the value of IC50 was more than 200 nM.).
Turning to `C#CCNC(=S)N[C@H]1CC[C@@H](Nc2nc3c(c(N(C)C)n2)CCCC3)CC1` [compound 2056], the class was 3 (Class 3 The value of percent of control at 10^−7 M was more than 60% or the value of IC50 was more than 200 nM.).
For the compound `CN(C)c1nc(N[C@H]2CC[C@@H](NC(=S)Nc3ccc(S(=O)(=O)N4CCCCC4)cc3)CC2)nc2c1CCCC2` [compound 2057], the class was 3 (Class 3 The value of percent of control at 10^−7 M was more than 60% or the value of IC50 was more than 200 nM.).
In the case of `CN(C)c1nc(N[C@H]2CC[C@@H](NC(=S)NCCC3=CCCCC3)CC2)nc2c1CCCC2` [compound 2058] it was 3 (Class 3 The value of percent of control at 10^−7 M was more than 60% or the value of IC50 was more than 200 nM.); in that of `Cc1ccc(C)c(NC(=S)N[C@H]2CC[C@@H](Nc3nc4c(c(N(C)C)n3)CCCC4)CC2)c1` [compound 2059], 3 (Class 3 The value of percent of control at 10^−7 M was more than 60% or the value of IC50 was more than 200 nM.); in that of `CC(C)c1ccc(NC(=S)N[C@H]2CC[C@@H](Nc3nc4c(c(N(C)C)n3)CCCC4)CC2)c(Br)c1` [compound 2060], 3 (Class 3 The value of percent of control at 10^−7 M was more than 60% or the value of IC50 was more than 200 nM.).
For the compound `CN(C)c1nc(N[C@H]2CC[C@@H](NC(=S)Nc3cc(F)ccc3Br)CC2)nc2c1CCCC2` [compound 2061], the class is reported as 3 (Class 3 The value of percent of control at 10^−7 M was more than 60% or the value of IC50 was more than 200 nM.).
As for `COc1ccccc1CNC(=S)N[C@H]1CC[C@@H](Nc2nc3c(c(N(C)C)n2)CCCC3)CC1` [compound 2062], the class is 3 (Class 3 The value of percent of control at 10^−7 M was more than 60% or the value of IC50 was more than 200 nM.).
Consider `Cc1ccc(NC(=S)N[C@H]2CC[C@@H](Nc3nc4c(c(N(C)C)n3)CCCC4)CC2)cc1C` [compound 2063], for which the class is recorded as 3 (Class 3 The value of percent of control at 10^−7 M was more than 60% or the value of IC50 was more than 200 nM.).
`CN(C)c1nc(N[C@H]2CC[C@@H](NC(=S)NCCCCc3ccccc3)CC2)nc2c1CCCC2` [compound 2064]: the class is listed as 3 (Class 3 The value of percent of control at 10^−7 M was more than 60% or the value of IC50 was more than 200 nM.).
Regarding `CN(C)c1nc(N[C@H]2CC[C@@H](NC(=S)Nc3ccc(C(C)(C)C)cc3)CC2)nc2c1CCCC2` [compound 2065], the class is on record as 3 (Class 3 The value of percent of control at 10^−7 M was more than 60% or the value of IC50 was more than 200 nM.).
In the case of `CN(C)c1nc(N[C@H]2CC[C@@H](NC(=S)Nc3cc(Cl)ccc3F)CC2)nc2c1CCCC2` [compound 2066], the class is listed as 3 (Class 3 The value of percent of control at 10^−7 M was more than 60% or the value of IC50 was more than 200 nM.).
To `CN(C)c1nc(N[C@H]2CC[C@@H](NC(=S)NCC3CC3)CC2)nc2c1CCCC2` [compound 2068] belongs 3 (Class 3 The value of percent of control at 10^−7 M was more than 60% or the value of IC50 was more than 200 nM.); to `CCOC(=O)c1c(NC(=S)N[C@H]2CC[C@@H](Nc3nc4c(c(N(C)C)n3)CCCC4)CC2)sc2c1CCCC2` [compound 2069], 3 (Class 3 The value of percent of control at 10^−7 M was more than 60% or the value of IC50 was more than 200 nM.); to `CN(C)c1nc(N[C@H]2CC[C@@H](NC(=S)Nc3ccc(F)cc3Br)CC2)nc2c1CCCC2` [compound 2070], 3 (Class 3 The value of percent of control at 10^−7 M was more than 60% or the value of IC50 was more than 200 nM.).
